Experimental data published in BigSolDB 2.1.

C[C@@H](Oc1ccc(Oc2nc3ccc(Cl)cc3o2)cc1)C(=O)N(C)c1ccccc1F
solubility (mole fraction)
Details	in cyclohexane	in isobutanol	in isopentanol	in isopropanol	in n-butanol	in n-hexane	in n-pentanol	in n-propanol	in sec-butanol
278.15 K	–	0.00347	0.00526	0.00231	0.00631	0.000329	0.00739	0.00476	0.00344
283.15 K	0.00449	0.00487	0.00724	0.00315	0.00822	0.000495	0.00951	0.00646	0.00491
288.15 K	0.00627	0.00676	0.00977	0.00422	0.0109	0.000594	0.0123	0.00876	0.00683
293.15 K	0.00814	0.00921	0.013	0.00543	0.0139	0.000811	0.015	0.0115	0.00919
298.15 K	0.0115	0.0126	0.0173	0.00714	0.0183	0.00112	0.0187	0.0155	0.0122
303.15 K	0.0146	0.0169	0.0216	0.00963	0.0237	0.00156	0.0228	0.0209	0.016
308.15 K	0.0208	–	–	–	–	0.00196	–	–	–
313.15 K	0.0287	–	–	–	–	0.00245	–	–	–
